In US4820712A, “Sparsomycin (SC-RS) compounds having antitumor activity, a process for their preparation and pharmaceutical compositions containing sparsomycin (SC-RS) compounds” (priority 1986, dated 1989):
≈ marks a conversion by molar mass, not a printed value. Read-outs that look alike come from different tables or passages of the source.

Columns and labels:
L1210 leukemia = experiment: in vivo antitumor assay, L1210 leukemia; set-up: species or system CDF1 mice
Protocol: (§1) The antitumor activity of the present compounds has also been investigated by in vivo assays. In the assays, mice were treated for nine days in succession, starting at 24 hours after the time of tumor implant.
(§2) The results are shown in tables 4, 5 and 6 and represent the number of tumor-bearing mice surviving after administration of optimal doses of the test compound, expressed as a treatment/control (T/C×100%) ratio. In the tables, information is provided with respect to the sex, dose, weight loss of treated animals compared to control animals, and the number of survivors in groups of 6 mice.

P388 leukemia = experiment: in vivo antitumor assay, P388 leukemia; set-up: species or system CDF1 mice; conditions: for T/C (survival, treatment/control x 100%): ip daily x9, optimal dose mg/kg: sparsomycin 0.125, n-octyl 22.5, benzyl 2.0, 2e 20.0
Protocol: as §1, §2

acute toxicity LD50 = assay type: in vivo, mice; conditions: mouse, in vivo, ip, daily x9 injections, mice; 95% confidence interval given; read-out: LD 50 in mg/kg/inj i.p. in mice
Description: It appears therefrom that ala-sparsomycin is about 9× less toxic than sparsomycin.

Leukemia L 1210 cells = experiment: in vitro clonogenic L1210 assay (inhibition of colony formation in soft agar); assay type: cell-based; conditions: Mus musculus, L1210, 72 h, read-out: ID50 (dose giving 50% inhibition of L1210 colony formation)
Protocol: The in vitro clonogenic assay was effected in Leukemia L 1210 cells in soft agar medium (0.3%). […] In the analysis, the inhibition of the L 1210 colony formation by sparsomycin and derivatives thereof is determined for various concentrations, and the dose giving 50% inhibition of the colony formation, as compared with non-treated control cells is calculated (ID50).
From a suspension culture one hundred L 1210 cells are plated out in 35 mm culture dishes (Falcon) containing 1 ml soft agar culture medium and the compound to be investigated in suitable concentrations. The soft agar culture medium consists of Dulbecco's medium supplemented with 20% horse serum, 60 μmole 2-mercaptoethanol, 20 mg/ml L-asparagine, 75 mg/ml DEAE dextran (molecular weight 2×10^6) and 0.3% bacto agar (Difco). The culture dishes were incubated at 37° C. in an atmosphere of 10% CO2 in humidified air for 3 days. After this period of continuous exposure to the medicament the colonies were counted and dose-effect curves made. From these curves, the medicament dose is calculated which causes 50% inhibition of the colony formation as compared with non-treated control cells.

[1] = target: ribosomes from S. cerevisiae Y166 (peptidyl transferase activity); experiment: polyphenylalanine synthesis assay, S. cerevisiae ribosomes; assay type: biochemical; conditions: concentration giving 50% inhibition relative to control; 30° C., 30 min; read-out: ED50 polyPhe synthesis S. cerevisiae
Protocol: (§3) The peptidyl transferase activity was measured by the polyphenylalanine synthesis assay (Nirenberg and Matthei, Proc. Natl. Acad. Sci. USA 47 (1961) 1588), the fragment reaction (Monro, Methods Enzymol. 20 (1971) 472) and the puromycin reaction. In all the in vitro tests, i.e. polyPhe synthesis, fragment reaction and puromycin reaction, ribosomes from E. coli MRE600 and S. cerevisiae Y166 were used. The reaction mixture for polyphenylalanine synthesis was slightly different for E. coli and S. cerevisiae.
S. cerevisiae: The test was carried out as indicated above for E. coli. The phosphoenol pyruvate and pyruvate kinase were, however, replaced by creatine phosphate (20 mM) and creatine phosphokinase (50 μg/ml). The incubation was performed at 30° C. for 30 min and the samples were processed as described above. Under these conditions the control samples polymerized 5-14 and 3-8 molecules of phenylalanine per ribosome derived from E. coli and S. cerevisiae, respectively. Ribosomes and supernatant factors from E. coli and S. cerevisiae were prepared according to standard procedures, described by Staehelin and Maglott, Methods Enzymol. 20 (1971) 449, and by Sanchez-Madrid et al, Eur. J. Biochem. 98 (1979) 409.
(§4) The concentration of sparsomycin or an analog giving 50% inhibition of the protein synthesis relative to the control is given in ED50.

[2] = system: ribosomes from E. coli MRE600 (peptidyl transferase activity); experiment: fragment reaction, E. coli ribosomes; assay type: biochemical; conditions: 50% inhibition relative to control; 0° C., 30 min, 33% methanol; read-out: ED50 Fragment reaction E. coli
Protocol: as §3
(§5) The fragment reaction was carried out in 150 μl of 33 mM Tris-HCl pH 7.4, 270 mM KCl, 13 mM magnesium acetate containing 1 mg/ml of ribosomes, 2 mM puromycin, 1 pmol of N-acetyl-[^3 H]Leu-ACCAC(U), the required concentration of sparsomycin or its analogue and 33% methanol. The reaction was initiated by the addition of the alcohol and allowed to proceed at 0° C. for 30 min, and was then stopped by the addition of 100 μl of 0.3M sodium acetate pH 5.5 saturated with MgSO4. The samples were extracted with 1.5 ml of ethyl acetate and 1 ml of the organic phase was checked for radioactivity. The 3' terminal pentanucleotide N-acetyl-[^3 H]Leu-ACCAC(U) was prepared from N-acetyl-[^3 H]Leu-tRNA by ribonuclease T1 as described by Monro.
as §4

E. coli MRE600 = experiment: inhibition of bacterial growth; assay type: cell-based
Protocol: Inhibition of bacterial growth was tested in solid as well as in liquid medium. For the test on agar plates, petri dishes containing 15 ml of LB medium (10 g/l bactotryptone, 5 g/l yeast extract and 5 g/l NaCl) were covered with 5 ml of the same medium--kept melted at 40° C.--containing 40 μl of a culture of the required bacterium at approximately an A550 of 2. After solidification, 3 mm filter disks containing 4 μl of a 10 mM solution of the antibiotic in 50EtOH/DMSO were placed on the surface of the agar and the plates were incubated at 37° C. for 24 h. For the test in liquid medium, E. coli MRE600 was grown in LB medium supplemented with 0.2% of glucose to exponential phase (A560 =0.1) and distributed in 1 ml aliquots in tubes containing the required amount of antibiotic. The tubes were incubated at 37° C. for 4 h, subsequently diluted with 3 ml of 0.1% of sodium azide to stop growth and the absorption at 550 nm was measured. The absorption of the medium without addition of antibiotic was considered as 100% growth.

[3] = system: ribosomes from E. coli MRE600 (peptidyl transferase activity); experiment: puromycin reaction, E. coli ribosomes; assay type: biochemical; conditions: 50% inhibition relative to control; read-out: ED50 Puromycin reaction E. coli
Protocol: as §3
The puromycin reaction was carried out in 25 μl of 30 mM KCl, 50 mM NH4 Cl, 30 mM Tris-HCl pH 7.8, 20 mM MgCl2, 10 pmol of ribosomes, 100 μg/ml of poly(U) and 15 pmol of N-acetyl-[^3 H]Phe-tRNA. The reaction mixture was incubated for 30 min at 37° C. and then 1 μl of 20 mM puromycin was added and incubation was followed for 5 more min. To the samples 250 μl of 0.1M sodium carbonate and 0.7 ml of ethyl acetate were added, shaken for 1 min, centrifuged to separate the phases and 0.5 ml of the upper organic phase taken for estimating the radioactivity.
as §4

[4] = target: ribosomes from S. cerevisiae Y166 (peptidyl transferase activity); experiment: fragment reaction, S. cerevisiae ribosomes; assay type: biochemical; conditions: 50% inhibition relative to control; 0° C., 30 min, 33% methanol; read-out: ED50 Fragment reaction S. cerevisiae
Protocol: as §3, §5, §4

[5] = system: ribosomes from E. coli MRE600 (peptidyl transferase activity); experiment: polyphenylalanine synthesis assay, E. coli ribosomes; assay type: biochemical; conditions: concentration giving 50% inhibition relative to control; 37° C., 30 min; read-out: ED50 polyPhe synthesis E. coli
Protocol: as §3
E. coli: The reaction mixture (50 μl) contained 50 mM Tris-HCl pH 7.6, 15 mM MgCl2, 90 mM KCl, 15 mM β-mercapto ethanol, 1 mM GTP, 10 mM ATP, 0.2 mg/ml of polyuridylic acid, 1.5 mg/ml tRNA, 0.3 μM of ribosomes, 2.5 mg/ml of phosphoenol pyruvate, 20 μg/ml of pyruvate kinase, the required concentration of sparsomycin or its analogue and 5 μl of supernatant fraction S-100. Subsequently, [^3 H]phenylalanine, 30 μM (about 60 cpm/pmol) was added to start the reaction. Incubation was at 37° C. for 30 min. The reaction was stopped by the addition of 1 ml of 10% TCA and the samples were filtered through glass fiber filters. The filters were washed with 10 ml of cold 10% TCA, dried and counted for radioactivity.
as §4

solubility in water = assay type: physicochemical
[6] = system: RC (renal cell) carcinoma; experiment: in vivo antitumor assay, RC (renal cell) carcinoma; set-up: species or system CDF1 mice; conditions: for T/C (survival, treatment/control x 100%): ip daily x9, optimal dose mg/kg: sparsomycin 0.125, n-octyl 20.0, benzyl 2.7, 2a 1.1
Protocol: as §1, §2

[7] = female mice, ip daily x9, optimal dose mg/kg: sparsomycin 0.25, n-octyl 12.0, benzyl 10.0, 2a 2.5, 2e 13.3
[8] = female mice, ip daily x9, dose mg/kg: sparsomycin 0.25, n-octyl 12.0, benzyl 10.0, 2a 2.5, 2e 13.3
[9] = male mice, ip daily x9, dose mg/kg: sparsomycin 0.125, n-octyl 22.5, benzyl 2.0, 2e 20.0
[10] = soft agar 0.3%, 3 days continuous exposure, vs non-treated control cells
[11] = Escherichia coli, MRE600, 4 h, read-out: Growth inhibition E. coli MRE600 ED50
[12] = male mice, ip daily x9, dose mg/kg: sparsomycin 0.125, n-octyl 20.0, benzyl 2.7, 2a 1.1
[13] = male mice, ip daily x9, optimal dose mg/kg: sparsomycin 0.125, n-octyl 20.0, benzyl 4.0, 2a 1.7
[14] = male mice, ip daily x9, dose mg/kg: sparsomycin 0.125, n-octyl 20.0, benzyl 4.0, 2a 1.7

Compound | T/C (survival, treatment/control x 100%) (L1210 leukemia; [7]) [%] | cures (survivors in groups of 6 mice) (L1210 leukemia; [8]) | weight loss (T - C) (L1210 leukemia; mouse, in vivo, ip) [g] | T/C (survival, treatment/control x 100%) (P388 leukemia; male mice) [%] | cures (survivors in groups of 6 mice) (P388 leukemia; [9]) | weight loss (T - C) (P388 leukemia; mouse, in vivo, ip) [g] | LD50 (acute toxicity LD50) [mg/kg] | IC50 (Leukemia L 1210 cells; [10]) [nM] | IC50 [1] [nM] | IC50 [2] [nM] | IC50 (E. coli MRE600; [11]) [nM] | IC50 [3] [nM] | IC50 [4] [nM] | IC50 [5] [nM] | IC50 (Leukemia L 1210 cells) [nM] | solubility (solubility in water) [µg/mL] | T/C (survival, treatment/control x 100%) ([6]; male mice) [%] | cures (survivors in groups of 6 mice) [6, 12] | T/C (survival, treatment/control x 100%) (L1210 leukemia; [13]) [%] | cures (survivors in groups of 6 mice) (L1210 leukemia; [14]) | further results
CCCCSC[S@+]([O-])C[C@H](C)NC(=O)/C=C/c1c(C)[nH]c(=O)[nH]c1=O [2e, (Sc Rs)-1-(n-butylthiomethyl)sulfinyl-2-[β-(6-methyl-5-uracilyl)acrylamido]-propane] | 161 | 0/6 | -0.7 | 146 | 0/6 | -3.2 | > 16 | – | – | – | – | – | – | – | – | – | – | – | – | – | –
CCCCCCCCSC[S@+]([O-])C[C@H](C)NC(=O)/C=C/c1c(C)[nH]c(=O)[nH]c1=O [2f, (Sc Rs)-1-(n-octylthiomethyl)sulfinyl-2-[β-(6-methyl-5-uracilyl)acrylamido]-propane] | – | – | – | – | – | – | – | 180 | – | – | – | – | – | – | – | – | – | – | – | – | –
CSC[S@@+]([O-])C[C@H](C)NC(=O)/C=C/c1c(C)[nH]c(=O)[nH]c1=O [3a, (Sc Ss)-1-(methylthiomethyl)sulfinyl-2-[β-(6-methyl-5-uracilyl)acrylamido]-propane] | – | – | – | – | – | – | – | – | 143000 | 55000 | 44000 | 2700 | 68000 | 283000 | 550 | – | – | – | – | – | –
Cc1[nH]c(=O)[nH]c(=O)c1/C=C/C(=O)N[C@@H](CO)C[S@@+]([O-])CSCc1ccccc1 [benzyl-sparsomycin] | 217 | 0/6 | – | 133 | 0/6 | – | 5 | – | 600 | 7600 | 1000 | 130 | 2600 | – | 110 | 1500 (≈ 3430 µM) | 158 | 0/6 | 162 | 0/6 | weight loss (T - C) [6, 12]: -1.8 g; weight loss (T - C) (L1210 leukemia; [8]): -1.6 g; weight loss (T - C) (L1210 leukemia; male mice, ip daily x9 from 24 h after implant, dose mg/kg: sparsomycin 0.125, n-octyl 20.0, benzyl 4.0, 2a 1.7): -1.8 g; weight loss (T - C) (P388 leukemia; [9]): -2.2 g
CCCCCCCCSC[S@+]([O-])C[C@H](CO)NC(=O)/C=C/c1c(C)[nH]c(=O)[nH]c1=O [n-octyl-sparsomycin] | 153 | 0/6 | -1.9 | 150 | 0/6 | -1.7 | 29.5 | 100 | 1300 | 60000 | – | 250 | 300000 | 1600 | – | ~200 (≈ 435 µM) | 179 | 0/6 | 152 | 0/6 | IC50 (E. coli MRE600; Escherichia coli, MRE600, 4 h; read-out: Growth inhibition E. coli MRE600 ED50): 2500 nM; weight loss (T - C) ([6]; mouse, in vivo, ip): -1.6 g
